A short description of assay [1]: Suppression of discoloration by immersing green soybeans in aqueous solutions of anti-oxidation materials. Details: species or system green soybean. To be noted: green soybeans immersed in aqueous solutions, permeation into tissues under depressurization. The text has this:
A test for suppressing discoloration of a green color was made by immersing green soybeans in aqueous solutions of various anti-oxidation materials, such as ascorbic acid, tocopherol and carotenoids, thus causing the anti-oxidation materials to permeate into tissues under depressurization and to capture radicals inducing decomposition of chlorophyll.

Assay [2] is described as follows: Suppression of discoloration of a chlorophyll/ethanol solution preserved under illumination of light. To be noted: 10° C., 17 hours, 1600 Lux; for Suppression Effect (%): 0.01 M anti-oxidation material in chlorophyll/ethanol solution (25 μg/ml), absorbance at 640 nm, relative to control sample; for effect of retaining a green color against light: addition to chlorophyll/ethanol solution. How it is done: Next, to check the effect resulting when anti-oxidation materials permeated into tissues, particularly chloroplasts, of a living body, a test for suppressing discoloration of a green color was made by preparing a chlorophyll/ethanol solution including chlorophyll, dissolving each of various anti-oxidation materials in the solution, and preserving it under illumination of light. More specifically, 4 ml of the chlorophyll/ethanol solution was prepared by adding 25 μg of chlorophyll in 1 ml of ethanol, and each anti-oxidation material, i.e., 0.01 M of ascorbic acid (aqueous solution), 0.01 M of α-tochopherol (ethanol solution), and 0.01 M of β-carotene (ethanol solution), was dissolved in the chlorophyll/ethanol solution. After enclosing each test sample, the test sample was preserved at 10° C. for 17 hours under 1600 Lux. Then, a change in absorbance of the test sample at 640 nm between before and after the preservation was measured. A higher value of the absorbance at 640 nm means a larger amount of chlorophyll. In Table 1, “control sample” represents a sample in which water was added, and “suppression effect” represents a chlorophyll reduction rate of each test sample calculated on condition that a chlorophyll reduction rate of the control sample after the preservation under illumination of light was assumed to be 100.

Consider tocopherol, for which the “effect of suppressing discoloration of a green color” value in assay [1] was “hardly confirmed”.

Consider `Cc1c(C)c2c(c(C)c1O)CCC(C)(CCCC(C)CCCC(C)CCCC(C)C)O2` (stereo not drawn) [α-Tochopherol/ethanol solution, α-tochopherol], for which, in assay [2], the “Suppression Effect (%)” value is 52.4% and the “effect of retaining a green color against light” value is reported as “apparent effect of retaining a green color against light was confirmed”.

Turning to `CC1=C(/C=C/C(C)=C/C=C/C(C)=C/C=C/C=C(C)/C=C/C=C(C)/C=C/C2=C(C)CCCC2(C)C)C(C)(C)CCC1` [β-Carotene/ethanol solution, β-carotene], in assay [2], the “Suppression Effect (%)” value was determined as 56.1% and the “effect of retaining a green color against light” value was “apparent effect of retaining a green color against light was confirmed”.

For `O=C1O[C@H]([C@@H](O)CO)C(O)=C1O` [Ascorbic acid aqueous solution, ascorbic acid], the “effect of suppressing discoloration of a green color” value in assay [1] is recorded as “hardly confirmed”. In addition, the “Suppression Effect (%)” value in assay [2] came out at 0%.
